In brackets after ≈: the same amount, converted by molar mass. Entries after “also recorded” stand apart in the source; their conditions may differ. Where two headings read alike, the source gives them in different places.
How the values were obtained:
[1] = target: Recombinant S. aureus LtaSSA expressed in E. coli (Staphylococcus aureus, UniProt Q2G093); assay type: cell-based
B. anthracis Sterne = assay: microbe, parasite or virus in culture; assay type: cell-based
E. faecalis - VRE V583 = assay: microbe, parasite or virus in culture; assay type: cell-based
E. faecium - VRE TX0016 = assay: microbe, parasite or virus in culture; assay type: cell-based
[2] = system: LTA production in S. aureus; assay: Inhibition of LTA synthesis in S. aureus (immunoblot); details: sub-lethal concentrations of compound
S. aureus RN4220 (MSSA) = assay: microbe, parasite or virus in culture; assay type: cell-based
S. aureus - MRSA USA300 = assay: microbe, parasite or virus in culture; assay type: cell-based
S. aureus RN4220 [3] = assay: Growth of S. aureus culture with sub-lethal compound (OD600); details: 1 μM compound, until control culture OD600 1.0
S. aureus RN4220 [4] = assay: High throughput screen for growth inhibitors, 384-well; assay type: cell-based; details: Staphylococcus aureus, positive control, vs medium alone
Protocol: The antibiotic sensitive strain S. aureus RN4220 was used to screen for small molecule growth inhibitors in a high throughput-screening assay using 384-well microplates. Cation-adjusted Hinton Mueller II broth supplemented with 0.005% Tween-80 was inoculated with a single colony of S. aureus RN4220. Following overnight incubation, the culture was diluted 1:100 in fresh medium and incubation was continued until the bacterial suspension reached an optical density at 600 nm (OD600) of 0.6 corresponding to a bacterial titer of 5×10^8 colony forming units (CFU) per ml. An aliquot of this culture was diluted 1:400 with fresh medium and stored on ice until it could be dispensed in 384-well plates. Small-scale experiments were conducted to determine the Z′-factor (1-[(3SD^−)+(3SD^+)/(Ave^−)−(Ave^+)]) used commonly for quality assessment of raw data sets generated in high-throughput screening. In this formula, (SD^+/−) and (Ave^+/−) represent standard deviation and average of positive and negative controls. […] The OD600 in each well was recorded after 20 hours incubation. […] After 20 hours, the OD600 was measured using a plate reader in absorbance mode. […]
S. aureus lacking the ltaS gene is unable to grow at temperatures […]. […] The quality of the screen was assessed for every assay plate with the Z′-factor, a measure for data variability within the dynamic range of the assay (Zhang et al. 1999). […]

[5] = 37° C., 18-22 hours, OD600, sigmoidal fit, read-out: IC50

Chain of Recombinant S. aureus LtaSSA expressed in E. coli (Q2G093 whole entry): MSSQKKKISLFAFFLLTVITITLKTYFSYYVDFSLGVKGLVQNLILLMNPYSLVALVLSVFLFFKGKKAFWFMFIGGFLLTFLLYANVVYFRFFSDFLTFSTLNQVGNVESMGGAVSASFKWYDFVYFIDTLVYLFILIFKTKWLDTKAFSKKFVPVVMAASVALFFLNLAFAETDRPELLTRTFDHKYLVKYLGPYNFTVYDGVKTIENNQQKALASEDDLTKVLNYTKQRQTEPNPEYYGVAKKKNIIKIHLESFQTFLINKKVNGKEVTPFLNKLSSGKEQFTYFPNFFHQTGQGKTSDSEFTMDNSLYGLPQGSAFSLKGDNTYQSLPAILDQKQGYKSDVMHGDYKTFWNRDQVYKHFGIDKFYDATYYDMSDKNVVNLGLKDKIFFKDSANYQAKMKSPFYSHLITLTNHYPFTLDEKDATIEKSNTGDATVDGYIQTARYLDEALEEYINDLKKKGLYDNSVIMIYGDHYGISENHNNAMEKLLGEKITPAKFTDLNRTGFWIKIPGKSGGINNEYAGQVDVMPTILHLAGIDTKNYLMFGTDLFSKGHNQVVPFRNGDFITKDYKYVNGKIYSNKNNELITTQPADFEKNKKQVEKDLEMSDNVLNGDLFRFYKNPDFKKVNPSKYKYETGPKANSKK

Compound | IC50 (B. anthracis Sterne; Bacillus anthracis) [µM] | MIC (B. anthracis Sterne; Bacillus anthracis) [µM] | IC50 (S. aureus RN4220 (MSSA); Staphylococcus aureus, MSSA) [µM] | MIC (S. aureus RN4220 (MSSA); Staphylococcus aureus, MSSA) [µM] | further results
COc1cccc(-c2nnc(NC(=O)c3ccc(S(=O)(=O)N(Cc4ccccc4)C(C)C)cc3)o2)c1 [4-(N-benzyl-N-isopropylsulfamoyl)-N-(5-(3-methoxyphenyl)-1,3,4-oxadiazol-2-yl)benzamide] | 1 | 1.6 (≈ 0.811 µg/mL) | 1.2 | 3.1 (≈ 1.57 µg/mL) | production of LTA promoted by plasmid encoded LtaSSA [1]: abrogated; IC50 (E. faecalis - VRE V583; Enterococcus faecalis, VRE): 18.5 µM; MIC (E. faecalis - VRE V583; Enterococcus faecalis, VRE): 50 µM (≈ 25.3 µg/mL); IC50 (E. faecium - VRE TX0016; Enterococcus faecium, VRE): 7.3 µM; MIC (E. faecium - VRE TX0016; Enterococcus faecium, VRE): 50 µM (≈ 25.3 µg/mL); LTA production (immunoblot α-LTA) [2]: affect the production of LTA; also recorded: reduced; IC50 (S. aureus - MRSA USA300; Staphylococcus aureus): 1.3 µM; MIC (S. aureus - MRSA USA300; Staphylococcus aureus): 3.1 µM (≈ 1.57 µg/mL); reduced growth of staphylococci (S. aureus RN4220 [3]): 75%
O=C(COC(=O)Cc1c[nH]c2ccccc12)Nc1nnc(-c2ccccc2)o1 [Compound 1771-5, 2-oxo-2-(5-phenyl-1,3,4-oxadiazol-2-ylamino)ethyl 2-(1H-indol-3-yl)acetate] | 88.1 | 200 (≈ 75.3 µg/mL) | 85.6 | > 400 | 
O=C(COC(=O)Cc1coc2cc3c(cc12)CCC3)Nc1nnc(-c2ccccc2)o1 [Compound 1771-7, 2-oxo-2-(5-phenyl-1,3,4-oxadiazol-2-ylamino)ethyl 2-(6,7-dihydro-5H-indeno[5,6-b]furan-3-yl)acetate] | 24.1 | 50 (≈ 20.9 µg/mL) | 27.7 | 50 (≈ 20.9 µg/mL) | 
O=C(COC(=O)Cc1ccccc1)Nc1nnc(-c2ccccc2)o1 [Compound 1771-4, 2-oxo-2-(5-phenyl-1,3,4-oxadiazol-2-ylamino)ethyl 2-phenylacetate] | 224 | > 400 | 242 | > 400 | 
O=C(N[C@H](CO)[C@H](O)c1ccc([N+](=O)[O-])cc1)C(Cl)Cl [chloramphenicol] |  |  |  |  | inhibition at 80 µM (S. aureus RN4220 [4]): 100%
CC(=O)COC(=O)Cc1coc2ccc3ccccc3c12 [Compound 1771-1, 2-oxopropyl 2-(naphtho[2,1-b]furan-1-yl)acetate] | 169 | > 400 | > 400 | > 400 | 
CC(NC(=O)COC(=O)Cc1coc2ccc3ccccc3c12)c1ccccc1 (stereo not shown) [Compound 1771-3, 2-oxo-2-(1-phenylethylamino)ethyl 2-(naphtho[2,1-b]furan-1-yl)acetate] | > 400 | > 400 | > 400 | > 400 | 
COc1cc(OC)cc(-c2nnc(NC(=O)c3ccc(S(=O)(=O)N(C)c4ccccc4)cc3)o2)c1 [Compound 1650-I01, N-(5-(3,5-dimethoxyphenyl)-1,3,4-oxadiazol-2-yl)-4-(N-methyl-N-henylsulfamoyl)benzamide] |  |  |  |  | production of LTA promoted by plasmid encoded LtaSSA [1]: abrogated; MIC (B. anthracis Sterne; 37° C., 18-22 hours, OD600): 3.1 µM (≈ 1.53 µg/mL); IC50 (B. anthracis Sterne; [5]): 1.5 µM; MIC (E. faecalis - VRE V583; 37° C., 18-22 hours, OD600): 100.0 µM (≈ 49.5 µg/mL); IC50 (E. faecalis - VRE V583; [5]): 55.6 µM; MIC (E. faecium - VRE TX0016; 37° C., 18-22 hours, OD600): 100.0 µM (≈ 49.5 µg/mL); IC50 (E. faecium - VRE TX0016; [5]): 14.6 µM; LTA production (immunoblot α-LTA) [2]: affect the production of LTA; also recorded: reduced; MIC (S. aureus RN4220 (MSSA); 37° C., 18-22 hours, OD600): 3.1 µM (≈ 1.53 µg/mL); IC50 (S. aureus RN4220 (MSSA); [5]): 1.3 µM; MIC (S. aureus - MRSA USA300; 37° C., 18-22 hours, OD600): 6.2 µM (≈ 3.07 µg/mL); IC50 (S. aureus - MRSA USA300; [5]): 1.7 µM; reduced growth of staphylococci (S. aureus RN4220 [3]): 50%
CNC(=O)COC(=O)Cc1coc2ccc3ccccc3c12 [Compound 1771-2, 2-(methylamino)-2-oxoethyl 2-(naphtho[2,1-b]furan-1-yl)acetate] | > 400 | > 400 | > 400 | > 400 | 
Cc1cc2occ(CC(=O)OCC(=O)Nc3nnc(-c4ccccc4)o3)c2cc1C [Compound 1771-6, 2-oxo-2-(5-phenyl-1,3,4-oxadiazol-2-ylamino)ethyl 2-(5,6-dimethylbenzofuran-3-yl)acetate] | 14.8 | 25 (≈ 10.1 µg/mL) | 15.2 | 50 (≈ 20.3 µg/mL) | 
CC1CCCCN1S(=O)(=O)c1ccc(C(=O)Nc2nnc(-c3cccs3)o2)cc1 (stereo not shown) [Compound 1650-M01, 4-(2-methylpiperidin-1-ylsulfonyl)-N-(5-(thiophen-2-yl)-1,3,4-oxadiazol-2-yl)benzamide] | 11.1 | 25 (≈ 10.8 µg/mL) | 7.1 | 25 (≈ 10.8 µg/mL) | production of LTA promoted by plasmid encoded LtaSSA [1]: abrogated; IC50 (E. faecalis - VRE V583; Enterococcus faecalis, VRE): 36.7 µM; MIC (E. faecalis - VRE V583; Enterococcus faecalis, VRE): 100 µM (≈ 43.3 µg/mL); IC50 (E. faecium - VRE TX0016; Enterococcus faecium, VRE): 19.4 µM; MIC (E. faecium - VRE TX0016; Enterococcus faecium, VRE): 100 µM (≈ 43.3 µg/mL); MIC (S. aureus - MRSA USA300; 37° C., 18-22 hours, OD600): 25.0 µM (≈ 10.8 µg/mL); IC50 (S. aureus - MRSA USA300; Staphylococcus aureus): 8.4 µM; MIC (S. aureus - MRSA USA300; Staphylococcus aureus): 25 µM (≈ 10.8 µg/mL)

— patent publication US20150246024A1 (priority 2012, published 2015)
